Where two headings read alike, the source gives them in different places.
Columns and labels:
[1] = target: T1, human bradykinin 1 receptor (B1R) (Homo sapiens, UniProt P46663); assay: Functional investigation on the human bradykinin 1 receptor (B1R), Ca2+ FLIPR assay in CHO K1 hB1R cells; type: cell-based
T1 construct: expressed in transfected cells; host or cells: CHO K1 cells
T1 sequence (P46663 1-353): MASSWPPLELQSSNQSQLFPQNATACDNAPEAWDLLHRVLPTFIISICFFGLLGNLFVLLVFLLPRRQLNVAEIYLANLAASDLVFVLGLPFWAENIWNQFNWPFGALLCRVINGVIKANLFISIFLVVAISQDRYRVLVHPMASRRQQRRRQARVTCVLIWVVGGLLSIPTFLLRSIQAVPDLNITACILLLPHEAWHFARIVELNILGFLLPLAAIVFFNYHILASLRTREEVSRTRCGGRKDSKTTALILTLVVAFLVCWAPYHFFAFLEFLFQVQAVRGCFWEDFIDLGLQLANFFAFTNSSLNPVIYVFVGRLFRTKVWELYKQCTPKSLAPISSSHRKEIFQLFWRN
Outline: (§1)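 Cells were dye-loaded with Fluo-4 plus probenecid, then test substances added and Ca2+ influx compared with agonist control for % activation. After 10-20 min, EC80 agonist (Lys-Des-Arg9-bradykinin human; Des-Arg9-bradykinin rat) was applied; suppression gave % inhibition and IC50 values.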

[2] = target: T2, bradykinin 1 receptor (B1R) of the rat (Rattus norvegicus, UniProt P97583); assay: Functional investigation on the rat bradykinin 1 receptor (B1R), Ca2+ FLIPR assay in CHO K1 rB1R cells; type: cell-based
T2 construct: expressed in transfected cells; host or cells: CHO K1 cells
T2 sequence (P97583 1-337): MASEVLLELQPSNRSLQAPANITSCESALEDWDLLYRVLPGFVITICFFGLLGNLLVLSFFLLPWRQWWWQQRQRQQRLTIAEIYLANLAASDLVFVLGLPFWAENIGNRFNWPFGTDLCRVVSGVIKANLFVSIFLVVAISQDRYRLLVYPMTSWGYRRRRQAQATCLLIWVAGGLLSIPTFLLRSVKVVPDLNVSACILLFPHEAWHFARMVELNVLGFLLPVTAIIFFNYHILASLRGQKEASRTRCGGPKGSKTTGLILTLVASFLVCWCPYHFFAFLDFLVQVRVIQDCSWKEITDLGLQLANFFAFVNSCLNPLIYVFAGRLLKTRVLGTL
Outline: as §1

[3] = CHO-K1, B1R antagonism human, test substance 10 μM, Ca2+ FLIPR, CHO K1 hB1R cells, read-out: B1R Ant. h [10 μM] % Inhibition
[4] = CHO-K1, B1R antagonism rat, test substance 10 μM, Ca2+ FLIPR, CHO K1 rB1R cells, read-out: B1R Ant. r [10 μM] % Inhibition

Work on `Cc1cc(C)c(S(=O)(=O)N2CCC(OCC(=O)NC3CCC(C(c4cccs4)N(C)C)CC3)C2)c(C)c1` (centres unmarked) [Example 12, N-(4-((dimethylamino)(thiophen-2-yl)methyl)cyclohexyl)-2-(1-(mesitylsulfonyl)pyrrolidin-3-yloxy)acetamide] yielded an inhibition at 10 µM [1, 3] of 41% and an inhibition at 10 µM [2, 4] of 30%.
Compound `CN(C)C(c1cccs1)C1CCC(CNC(=O)COC2CCCCC2N(C)S(=O)(=O)c2ccc(Cl)c(Cl)c2)CC1` (centres unmarked) [Example 31, 2-(2-(3,4-dichloro-N-methylphenylsulfonamido)cyclohexyloxy)-N-((4-((dimethylamino)(thiophen-2-yl)methyl)cyclohexyl)methyl)acetamide] has an inhibition at 10 µM [1, 3] of 10% and an inhibition at 10 µM [2, 4] of 11%.
Work on `COc1cc(C)c(S(=O)(=O)N(C)CCOCC(=O)NCCC2CCC(C(c3cccc(F)c3)N(C)C)CC2)c(C)c1` (centres unmarked) [Example 197, N-(2-(4-((dimethylamino)(3-fluorophenyl)methyl)cyclohexyl)ethyl)-2-(2-(4-methoxy-N,2,6-trimethylphenylsulfonamido)ethoxy)acetamide] yielded an inhibition at 10 µM [1, 3] of 104% and an inhibition at 10 µM [2, 4] of 105%.
`COc1cc(C)c(S(=O)(=O)N(C)CCOCC(=O)NCCC2CCC(C(c3cccc(F)c3)N(C)C)CC2)c(C)c1C` (centres unmarked) [Example 183, N-(2-(4-((dimethylamino)(3-fluorophenyl)methyl)cyclohexyl)ethyl)-2-(2-(4-methoxy-N,2,3,6-tetramethylphenylsulfonamido)ethoxy)acetamide] showed an inhibition at 10 µM [1, 3] of 104% and an inhibition at 10 µM [2, 4] of 28%.
`COc1ccc(S(=O)(=O)N2Cc3ccccc3CC2COCC(=O)NCC2CCC(C(c3ccccc3)N(C)C)CC2)cc1` (centres unmarked) [Example 19, N-((4-((dimethylamino)(phenyl)methyl)cyclohexyl)methyl)-2-((2-(4-methoxyphenylsulfonyl)-1,2,3,4-tetrahydroisoquinolin-3-yl)methoxy)acetamide] gave an inhibition at 10 µM [1, 3] of 63% and an inhibition at 10 µM [2, 4] of 4%.
Work on `CN(C)C(c1cccc(F)c1)C1CCC(NC(=O)COCCN(Cc2ccccc2)S(=O)(=O)c2ccccc2)CC1` (centres unmarked) [Example 175, 2-(2-(N-benzylphenylsulfonamido)ethoxy)-N-(4-((dimethylamino)(3-fluorophenyl)methyl)cyclohexyl)acetamide] yielded an inhibition at 10 µM [1, 3] of -6% and an inhibition at 10 µM [2, 4] of 5%.
`COc1cc(C)c(S(=O)(=O)N(CCOCC(=O)NCCC2CCC(C(c3cccs3)N(C)C)CC2)Cc2ccccc2)c(C)c1` (centres unmarked) [Example 149, 2-(2-(N-benzyl-4-methoxy-2,6-dimethylphenylsulfonamido)ethoxy)-N-(2-(4-((dimethylamino) (thiophen-2-yl)methyl)cyclohexyl)ethyl)acetamide] gave an inhibition at 10 µM [1, 3] of 72% and an inhibition at 10 µM [2, 4] of 10%.
With `CN(C)C(c1cccs1)C1CCC(NC(=O)COC2CCN(S(=O)(=O)c3ccccc3)C2)CC1` (centres unmarked) [Example 194, N-(4-((dimethylamino)(thiophen-2-yl)methyl)cyclohexyl)-2-(1-(phenylsulfonyl)pyrrolidin-3-yloxy)acetamide] the inhibition at 10 µM [1, 3] was -17% and the inhibition at 10 µM [2, 4] was 14%.
With `COc1cc(C)c(S(=O)(=O)N2CCCC(OCC(=O)NCC3CCC(C(c4cccc(F)c4)N(C)C)CC3)C2)c(C)c1C` (centres unmarked) [Example 145, N-((4-((dimethylamino)(3-fluorophenyl)methyl)cyclohexyl)methyl)-2-(1-(4-methoxy-2,3,6-trimethylphenylsulfonyl)piperidin-3-yloxy)acetamide] the inhibition at 10 µM [1, 3] was 12% and the inhibition at 10 µM [2, 4] was 33%.
`CN(C)C(c1ccccc1)C1CCC(CNC(=O)COC2CCN(S(=O)(=O)c3ccccc3)C2)CC1` (centres unmarked) [Example 195, N-((4-((dimethylamino)(phenyl)methyl)cyclohexyl)methyl)-2-(1-(phenylsulfonyl)pyrrolidin-3-yloxy)acetamide] was tested, and the inhibition at 10 µM ([1]; CHO-K1, read-out: B1R Ant. h [10 μM] % Inhibition) was -13% and the inhibition at 10 µM ([2]; CHO-K1, read-out: B1R Ant. r [10 μM] % Inhibition) was 24%.
`COc1cc(C)c(S(=O)(=O)N2CCC(OCC(=O)NC3CCC(C(c4ccccc4)N(C)C)CC3)C2)c(C)c1` (centres unmarked) [Example 165, N-(4-((dimethylamino)(phenyl)methyl)cyclohexyl)-2-(1-(4-methoxy-2,6-dimethylphenylsulfonyl)pyrrolidin-3-yloxy)acetamide] was tested, and the inhibition at 10 µM [1, 3] was 98% and the inhibition at 10 µM [2, 4] was 38%.
With `CN(C)C(c1cccc(F)c1)C1CCC(NC(=O)COCCN(C)S(=O)(=O)c2ccc(Cl)cc2)CC1` (centres unmarked) [Example 196, 2-(2-(4-chloro-N-methylphenylsulfonamido)ethoxy)-N-(4-((dimethylamino)(3-fluorophenyl)methyl)cyclohexyl)acetamide] the inhibition at 10 µM [1, 3] was 6% and the inhibition at 10 µM [2, 4] was 27%.
`COc1cc(C)c(S(=O)(=O)N2CCN(CCOCC(=O)NCCC3CCC(C(c4cccc(F)c4)N(C)C)CC3)CC2)c(C)c1C` (centres unmarked) [Example 200, N-(2-(4-((dimethylamino)(3-fluorophenyl)methyl)cyclohexyl)ethyl)-2-(2-(4-(4-methoxy-2,3,6-trimethylphenylsulfonyl)piperazin-1-yl)ethoxy)acetamide] gave an inhibition at 10 µM [1, 3] of 73% and an inhibition at 10 µM [2, 4] of -3%.
`CN(C)C(c1cccc(F)c1)C1CCC(CCNC(=O)COCCN(C)S(=O)(=O)c2cccc(C(F)(F)F)c2)CC1` (centres unmarked) [Example 192, N-(2-(4-((dimethylamino)(3-fluorophenyl)methyl)cyclohexyl)ethyl)-2-(2-(N-methyl-3-(trifluoromethyl)phenylsulfonamido)ethoxy)acetamide] gave an inhibition at 10 µM [1, 3] of 30% and an inhibition at 10 µM [2, 4] of 10%.
`COc1ccc(S(=O)(=O)N(C)CCOCC(=O)NCC2CCC(C(c3ccccc3)N(C)C)CC2)cc1OC` (centres unmarked) [Example 169, 2-(2-(3,4-dimethoxy-N-methylphenylsulfonamido)ethoxy)-N-((4-((dimethylamino)(phenyl)methyl)cyclohexyl)methyl)acetamide] was tested, and the inhibition at 10 µM [1, 3] was -4% and the inhibition at 10 µM [2, 4] was -15%.
With `COc1ccc(S(=O)(=O)N2CCCCC2COCC(=O)NCC2CCC(C(c3ccccc3)N(C)C)CC2)cc1OC` (centres unmarked) [Example 150, 2-((1-(3,4-Dimethoxyphenylsulfonyl)piperidin-2-yl)methoxy)-N-((4-((dimethylamino)(phenyl)methyl)cyclohexyl)methyl)acetamide] the inhibition at 10 µM [1, 3] was 4% and the inhibition at 10 µM [2, 4] was 10%.
`CN(C)C(c1cccs1)C1CCC(NC(=O)COC2CCN(S(=O)(=O)c3cccc(C(F)(F)F)c3)C2)CC1` (centres unmarked) [Example 11, N-(4-((dimethylamino)(thiophen-2-yl)methyl)cyclohexyl)-2-(1-(3-(trifluoromethyl)phenylsulfonyl)pyrrolidin-3-yloxy)acetamide] gave an inhibition at 10 µM [1, 3] of -16% and an inhibition at 10 µM [2, 4] of 36%.
In the case of `CN(C)C(c1cccc(F)c1)C1CCC(NC(=O)COCCN(C)S(=O)(=O)c2c(Cl)cccc2Cl)CC1` (centres unmarked) [Example 171, 2-(2-(2,6-dichloro-N-methylphenylsulfonamido)ethoxy)-N-(4-((dimethylamino)(3-fluorophenyl)methyl)cyclohexyl)acetamide], the inhibition at 10 µM [1, 3] is reported as 68% and the inhibition at 10 µM [2, 4] is reported as 43%.
For `COc1ccc(S(=O)(=O)N2CCCC2COCC(=O)NC2CCC(C(c3ccccc3)N(C)C)CC2)cc1` (centres unmarked) [Example 182, N-(4-((dimethylamino)(phenyl)methyl)cyclohexyl)-2-((1-(4-methoxyphenylsulfonyl)pyrrolidin-2-yl)methoxy)acetamide], the inhibition at 10 µM [1, 3] was 9% and the inhibition at 10 µM [2, 4] was 25%.
